{"source": "paper PMC5306062", "about": "“Pharmacology and toxicology of the novel investigational agent Cantrixil (TRX-E-002-1)” (Cancer Chemotherapy and Pharmacology, 2016)", "key": {"[1]": {"test": "Rat 14-day pilot repeat-dose intraperitoneal toxicity study", "format": "in vivo", "details": "for deaths: 50 mg/kg/day; for AUC(0-t) / Cmax: plasma, Day 14, 5 mg/kg/day; for Cmax: read-out: plasma C max", "protocol": "Clinical signs at all dose levels were reduced and/or liquid faeces, and staining of the fur of the forelimbs or around the eyes, nose and snout. […] Macroscopic pathology findings were limited to the 50 mg/kg/day group and included small testes, small thymus and small spleen."}, "[2]": {"test": "Rat GLP 28-day repeat-dose intraperitoneal toxicity study", "format": "in vivo, SD rats", "details": "for half-life / Tmax / NOAEL at 28 days / Cmax: rat; for half-life / Tmax / Cmax: plasma, ip; for half-life: read-out: estimated plasma elimination half-life; for NOAEL at 28 days: in vivo", "protocol": "TRX-E-002-1 peak plasma concentrations were observed 0.25 – 0.5 h after dosing, except for mid-dose females on Day 1 (T max = 1 h). […] Mean plasma TRX-E-002-1 concentrations were roughly proportional to dose and were generally higher in males than in females. […] AUClast values on Day 28 tended to be higher than those on Day 1, except in low-dose males and high-dose females (Table 2), indicating slight accumulation of TRX-E-002-1 with daily dosing.\nNo deaths were observed during the study. […] At 10 mg/kg, reduced quantity of faeces was observed during the first 1 or 2 weeks in all animals. During the recovery period, faeces were normal, although anogenital staining persisted up to 4 days after cessation of dosing in one high-dose male.\nBody weight gain was reduced over Days 1–28 in high-dose males, and during the first treatment week in mid-dose males and high-dose females. Mean body weights at the end of the dosing period were 99.5, 95.7 and 89.2% of control values in males at 0.5, 3 and 10 mg/kg/day, respectively; corresponding values in females were 99.8, 97.8 and 97.8%, respectively.\nTreatment-related macroscopic abnormalities at the terminal necropsy were limited to distention of the caecum and/or colon in both sexes at 10 mg/kg/day, and obstruction of the colon in 3/10 males at this dose level. No macroscopic findings were present after the recovery period. […] Thymic weight was reduced in males at 3 and 10 mg/kg/day and was increased in females at 10 mg/kg/day. Testicular and epididymal weights were still reduced in the 10 mg/kg/day group after the recovery period.\nSimilar changes were also seen after the 14-day recovery period (significant in males only).\nIn summary, the major toxicity finding in rats dosed once daily for 28 days with TRX-E-002-1 was degeneration of seminiferous tubules in the testes and of sperm in the epididymides at the high dose of 10 mg/kg/day. Other findings including transient faecal changes, reductions in weight gain and food consumption, serum biochemical changes, macroscopic lesions in the large intestine and atrophy of the salivary glands were considered non-adverse. The NOAEL was considered to be 3 mg/kg/day in male rats and 10 mg/kg/day in females. The greater sensitivity of male rats compared with females would appear to be associated with higher cumulative systemic exposure over the 28-day repeat-dose period."}, "[3]": {"system": "CYP3A4", "test": "CYP induction in human hepatocytes", "format": "in vitro ADME", "details": "one of three donors", "excerpt": "(§1) Potential induction of human drug-metabolizing cytochrome P450 enzymes by TRX-E-002-1 was also investigated in human hepatocytes in vitro (VPT3079/2015). No evidence of CYP1A2 induction was observed."}, "[4]": {"system": "CYP1A2", "test": "CYP induction in human hepatocytes", "format": "in vitro ADME", "excerpt": "as §1"}, "[5]": {"system": "CYP2B6", "test": "CYP induction in human hepatocytes", "format": "in vitro ADME", "details": "one of three donors", "excerpt": "as §1"}, "[6]": {"biological_target": "T1, CYP3A4 (Homo sapiens, UniProt P08684)", "T1 construct": "investigated in human hepatic microsomes in vitro; from tissue; host or cells: human hepatic microsomes", "test": "Metabolism-dependent CYP inhibition in human hepatic microsomes", "format": "in vitro ADME", "excerpt": "(§2) The potential for pharmacokinetic drug interactions resulting from inhibition of drug-metabolizing cytochrome P450 enzymes was investigated in human hepatic microsomes in vitro. TRX-E-002-1 inhibited multiple cytochrome P450 drug-metabolizing enzymes, including CYP2C9, CYP2C8, CYP2C19, CYP2B6, CYP3A4, CYP2D6, CYP2A6 and CYP1A2. […] In particular, the potential interaction between Cantrixil and paclitaxel, a CYP2C9 substrate frequently used in the treatment of ovarian cancer, needs to be considered."}, "[7]": {"biological_target": "T2, CYP1A2 (Homo sapiens, UniProt P05177)", "T2 construct": "investigated in human hepatic microsomes in vitro; from tissue; host or cells: human hepatic microsomes", "test": "Metabolism-dependent CYP inhibition in human hepatic microsomes", "format": "in vitro ADME", "excerpt": "as §2"}, "[8]": {"biological_target": "T3, CYP2C8 (Homo sapiens, UniProt P10632)", "T3 construct": "investigated in human hepatic microsomes in vitro; from tissue; host or cells: human hepatic microsomes", "test": "Metabolism-dependent CYP inhibition in human hepatic microsomes", "format": "in vitro ADME", "excerpt": "as §2"}, "[9]": {"system": "mouse lymphoma L5178Y cells", "test": "In vitro mammalian cell mutation assay, thymidine kinase locus", "details": "3 h with and without S9, 24 h without S9", "protocol": "Genotoxicity testing of TRX-E-002-1 was performed in an ICH-compliant test battery (see ICH Guideline S2A), comprising an in vitro bacterial reverse mutation test, an in vitro mammalian cell mutation assay and an in vivo rodent bone marrow micronucleus assay. The assays were performed in compliance with GLP regulations.\nThe in vitro mammalian cell mutation assay utilised the forward mutation system at the thymidine kinase locus of the mouse lymphoma L5178Y cells using a microtitre cloning technique. TRX-E-002-1 was tested in three experimental conditions: 3-h incubation at 37 °C with and without metabolic activation system (Aroclor-induced rat liver S9 mix), and a 24-h incubation without metabolic activation (i.e. continuous treatment)."}, "[10]": {"system": "wild-type human ether-à-go-go-related gene (hERG)", "test": "hERG trafficking, surface expression of wild-type hERG", "format": "cell-based"}, "[11]": {"details": "female, Sprague-Dawley, rat, ip, females"}, "[12]": {"details": "male, Sprague-Dawley, rat, ip, males"}}, "note": "Like-named read-outs stand apart in the source and are kept apart here."}
{"smiles": "COc1cc([C@@H]2COc3c(ccc(O)c3C)[C@@H]2c2ccc(O)cc2)cc(OC)c1O", "note": "[TRX-E-002-1, (+) cis-4-(para-hydroxyphenyl)-7,4′-dihydroxy-3′,5′-dimethoxy-8-methylisoflavan]", "values": [{"measurement": "deaths", "setting": "[1]; females", "value": "8/11"}, {"measurement": "deaths", "setting": "[1]; males", "value": "9/11"}, {"measurement": "NOAEL at 14 days", "setting": "[1]; both sexes, Sprague-Dawley, rat, in vivo, ip", "value": 5, "unit": "mg/kg/day"}, {"measurement": "AUC(0-t)", "setting": "[1]; [11]", "value": 665, "unit": "ng·h/mL"}, {"measurement": "Cmax", "setting": "[1]; [11]", "value": 257, "unit": "ng/mL"}, {"measurement": "doses with reduced body weight gain", "setting": "[1]; females", "value": "≥ 15", "unit": "mg/kg/day"}, {"measurement": "AUC(0-t)", "setting": "[1]; [12]", "value": 1870, "unit": "ng·h/mL"}, {"measurement": "Cmax", "setting": "[1]; [12]", "value": 909, "unit": "ng/mL"}, {"measurement": "doses with reduced body weight gain", "setting": "[1]; males", "value": "≥ 5", "unit": "mg/kg/day"}, {"measurement": "decreases in total protein, albumin and globulin", "setting": "[2]; 10 mg/kg/day, males and females, end of 28-day treatment", "value": "≤ 8", "unit": "%"}, {"measurement": "deaths", "setting": "[2]; 0.5, 3 or 10 mg/kg/day up to 28 days", "value": "No deaths"}, {"measurement": "half-life", "setting": "[2]; both sexes, Sprague-Dawley, Day 1, across sexes and doses", "value": "42 to 84", "unit": "min"}, {"measurement": "half-life", "setting": "[2]; both sexes, Sprague-Dawley, Day 28", "value": "54 to 138", "unit": "min"}, {"measurement": "Tmax", "setting": "[2]; both sexes, Sprague-Dawley, all groups except mid-dose females on Day 1, read-out: time of peak plasma concentrations", "value": "15 to 30", "unit": "min"}, {"measurement": "NOAEL at 28 days", "setting": "[2]; female, SD", "value": 10, "unit": "mg/kg/day"}, {"measurement": "Cmax", "setting": "[2]; female, SD, Day 1, 0.5 mg/kg, females", "value": 33.4, "unit": "ng/mL"}, {"measurement": "Cmax", "setting": "[2]; female, SD, Day 1, 3 mg/kg, females", "value": 150, "unit": "ng/mL"}, {"measurement": "Tmax", "setting": "[2]; female, Sprague-Dawley, 3 mg/kg, mid-dose females, Day 1, read-out: T max", "value": 60, "unit": "min"}, {"measurement": "Cmax", "setting": "[2]; female, Sprague-Dawley, Day 1, 10 mg/kg, females", "value": 535, "unit": "ng/mL"}, {"measurement": "mean body weight at end of dosing period", "setting": "[2]; females, 0.5 mg/kg/day", "value": "99.8 % of control values"}, {"measurement": "mean body weight at end of dosing period", "setting": "[2]; females, 3 mg/kg/day", "value": "97.8 % of control values"}, {"measurement": "mean body weight at end of dosing period", "setting": "[2]; females, 10 mg/kg/day", "value": "97.8 % of control values"}, {"measurement": "mean body weight after the 14-day recovery period", "setting": "[2]; high-dose males", "value": "93.6 % of control value"}, {"measurement": "NOAEL at 28 days", "setting": "[2]; male, SD", "value": 3, "unit": "mg/kg/day"}, {"measurement": "Cmax", "setting": "[2]; male, SD, Day 1, 3 mg/kg, males", "value": 181, "unit": "ng/mL"}, {"measurement": "Cmax", "setting": "[2]; male, SD, Day 1, 10 mg/kg, males", "value": 780, "unit": "ng/mL"}, {"measurement": "Cmax", "setting": "[2]; male, Sprague-Dawley, Day 1, 0.5 mg/kg, males", "value": 35.4, "unit": "ng/mL"}, {"measurement": "mean body weight at end of dosing period", "setting": "[2]; males, 0.5 mg/kg/day", "value": "99.5 % of control values"}, {"measurement": "mean body weight at end of dosing period", "setting": "[2]; males, 3 mg/kg/day", "value": "95.7 % of control values"}, {"measurement": "mean body weight at end of dosing period", "setting": "[2]; males, 10 mg/kg/day", "value": "89.2 % of control values"}, {"measurement": "induction of CYP3A4", "setting": "[3]", "value": "Equivocal evidence"}, {"measurement": "CYP1A2 induction", "setting": "[4]", "value": "No evidence"}, {"measurement": "induction of CYP2B6", "setting": "[5]", "value": "Equivocal evidence"}, {"measurement": "metabolism-dependent inhibition", "setting": "[6]", "value": "observed"}, {"measurement": "metabolism-dependent inhibition", "setting": "[7]", "value": "observed"}, {"measurement": "metabolism-dependent inhibition", "setting": "[8]", "value": "observed"}, {"measurement": "mutant frequencies compared with control values", "setting": "[9]", "value": "did not show statistically significant differences"}, {"measurement": "surface expression of wild-type hERG", "setting": "[10]", "value": "does not affect"}]}
